Test results reported in article PMC11672137, “High-Affinity Lectin Ligands Enable the Detection of Pathogenic Pseudomonas aeruginosa Biofilms: Implications for Diagnostics and Therapy” (JACS Au, 2024).

Molecular target: T1, LecA (Pseudomonas aeruginosa, UniProt Q05097)
T1 construct: made in house
Test: Competitive binding assay based on fluorescence polarization, LecA
Method: Next, binding of the optimized divalent ligand 17 and its synthetic precursor 16 to LecA was evaluated by fluorescence polarization-based (FP) assays,[47] SPR, and ITC. […] Therefore, fluorescent ligand 17 was analyzed in a direct binding experiment by FP. […] The dissociation constants for 16 were 47.2 ± 11.3 nM (ITC) and 47.8 ± 44.1 nM (steady-state SPR), while for 17, the values were 64.1 ± 31.1 nM and 79.3 ± 24.9 nM (steady-state SPR). For the SPR experiments, Kd was also determined by single-cycle kinetic analysis resulting in approximately five times higher affinity, but the data have limited reliability due to suboptimal fit for the kinetic curves (Figures S13B and S14).[58]−[60] […]
137 mM NaCl, 2.6 mM KCl at pH 7.4 supplemented with 1 mM CaCl2). Protein concentration was determined by UV spectroscopy at 280 nm using a molar extinction coefficient of 27 960 M-1 cm-1 for LecA and 6 990 M-1 cm-1 for LecB.
All synthesized alkyne precursors (S5m, S5p, S6m, S6p, S11, 25, S16, S22 and S24) were analysed in the previously established competitive binding assays based on fluorescence polarization (Figure S2).18,19 Galactose-based compounds (S5m, S5p, S6m, S6p, S11) were evaluated against LecA and C-glycoside-based compounds […] and S16 against LecB. […]
PheraStar FS plate reader (BMG Labtech GmbH, Germany) with excitation filters at 485 nm and emission filters at 535 nm. […]

T1 sequence (Q05097 whole entry): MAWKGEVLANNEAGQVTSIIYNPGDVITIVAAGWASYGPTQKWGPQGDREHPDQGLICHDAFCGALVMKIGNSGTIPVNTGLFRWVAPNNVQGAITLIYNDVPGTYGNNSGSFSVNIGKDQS

C#CCCN(Cc1ccc(NC(=O)CCc2ccc(O[C@@H]3O[C@H](CO)[C@H](O)[C@H](O)[C@H]3O)cc2)cc1)Cc1ccc(NC(=O)CCc2ccc(O[C@@H]3O[C@H](CO)[C@H](O)[C@H](O)[C@H]3O)cc2)cc1 [compound 16]
IC50: 5.6 ± 2.2 µM
